Data reported in US5981498A, “Agent for improving the blood circulation” (Kabushiki Kaisha Hayashibara Seibutsu Kagaku Kenkyujo, priority 1997, dated 1999).

Tests used:
[1] = tested on: lumbago or chronic stiffness in the shoulder; test: Clinical test, cataplasm (Table 1); format: in vivo, human; details: versus sucrose; Tables 1 and 2
Procedure: A clinical paramedic conducted the experiment and, after the experiment, asked the therapeutic effect and the side effects of the volunteers. The therapeutic effect was evaluated with four ranks of "very effective", "effective", "unchanged", and "worsened", and the effectivity (%) was calculated as a percentage of the number of volunteers, who answered "very effective" and "effective", to the total number of volunteers.

[2] = tested on: blood flow, dorsum cucullaris of volunteer with stiffness in both shoulders; test: Plethysmogram / volume pulse wave (PTG), improvement of blood circulation; format: in vivo, human; details: similar experiment on vitamin P, cataplasm, MV and PTG
Text: MV is an apparatus for recording micro-vibration of ballistic components accompanied by muscular fibers in vivo and heartbeat by converting the micro-vibration into an electrodynamic phenomenon where peaks are detected at a high-frequency region in patients with muscular rigidity such as stiffness in the shoulder, and the peaks are shifted to a lower-frequency region as the muscular rigidity is relived. PTG is an apparatus for detecting blood flow as a vascular change in pressure and for expressing change in volume as a wave-height level; When the wave-height level is increased as the increment of blood flow in a stiff part in the shoulder, meaning that blood circulation is improved.
The patient was monitored for both MV and PTG by a polygraph for 20 min, and the data were recorded by a data recorder.
On the next morning, the cataplasm was removed from the volunteer while they were allowed to lay on the bed, followed by attaching pickups to the same part as of the cataplasm for measuring and recording MV and PTG for 30 min and for two hours, respectively, similarly as above.

| Compound | effect of trehalose on the muscular-rigidity-relieving activity of glycosyl vitamin P [1] | effect as compared with control [2] |
| --- | --- | --- |
| OC[C@H]1O[C@H](O[C@H]2O[C@H](CO)[C@@H](O)[C@H](O)[C@H]2O)[C@H](O)[C@@H](O)[C@@H]1O [trehalose] | significantly augmented |  |
| vitamin P |  | substantially showed no remarkable effect |
